Values of other authors as cited in US12390412B2, “Hydroglycolic cosmetic composition with a high active content” (L'OREAL, priority 2020, dated 2025).

Details: pH of the composition about 3.0 to about 4.0, more particularly about 3.5

Compound: O=C1O[C@H]([C@@H](O)CO)C(O)=C1O [ascorbic acid]
- ascorbic acid remains in a protonated, uncharged form: greater than 82%
